Experiments:
[1] = system: GADD-153; experiment: RT-PCR of GADD-family genes in liver, GADD-153; set-up: species or system Wistar rats; conditions: rat liver, in vivo
Description: (§1) The induction of these genes correlates with the histopathological findings in a time related fashion: While PEG-3 seems to be an early marker, GADD-45 and GADD-143 appear regulated at later time points, when the tissue damage is obvious by conventional endpoints.

[2] = system: PEG-3; experiment: RT-PCR of GADD-family genes in liver, PEG-3; set-up: species or system Wistar rats; conditions: rat liver, in vivo
Description: as §1

[3] = system: GADD-45; experiment: RT-PCR of GADD-family genes in liver, GADD-45; set-up: species or system Wistar rats; conditions: rat liver, in vivo
Description: as §1

[4] = Classification of liver expression profiles with support vector machines; set-up: species or system Wistar rats; conditions: compounds not present in the initial training set, individual animals, 5 SVMs
Description: Adult male Wistar rats were dosed in vivo and the resulting expression profile in liver was determined. SVMs were built for the discrimination between 3 different classes of hepatotoxicants, non-toxic substances and controls. The training set consisted of 180 gene expression profiles from individual animals treated with direct acting, cholestatic, steatotic, non-toxic compounds and corresponding vehicle-dosed controls. As a first step the chips were rescaled to a median value of 0 and a standard deviation of 1. Subsequently chips were presented to a linear kernel SVM (for classifier training the SVM software package from William Stafford Noble, Department of Computer Science, Columbia University, New York was used. Procedures for the Recursive Feature Elimination (RFE), automation of the whole training cycles and further data analysis were developed in house, using the PERL language.) Single binary classifiers for each category of chips were obtained by training one group against all others (‘One-vs-All’ training method). Multi-class classification for a given test chip was then carried out by combining the outputs of all binary classifiers. A leave-one-out cross validation procedure was applied to assess the quality of the trained machines with respect to the training data. […]

[5] = system: candidate marker genes (Table 4); experiment: RT-PCR of candidate marker genes to differentiate toxic and non-toxic 5-HT6 receptor antagonists (FIG. 10); type: in vivo, Wistar rats; conditions: rat liver, some of the selected genes
Description: The regulation of the mRNA levels of several candidate genes (Table 4) was verified with quantitative RT-PCR. Specific primers for these genes have been designed in order to evaluate the expression with RT-PCR using SybrGreen assay (Table 6). For each performed RT-PCR reaction, the specificity of the assay was evaluated with dissociation curve software (Applied Biosystems), as well as by assessment of the size of the product using either gel electrophoresis or Agilent Bioanalyzer.
In a first step, the induction of the mRNA levels of 9 candidate genes (Table 5 and FIG. 10) was verified with quantitative PCR. […] As an internal control, the house-keeping gene glycernine-aldehyde-phosphate-dehydrogenase (GAPDH) was also analyzed.

[6] = system: AH-Receptor; experiment: Affymetrix GeneChip liver expression, AH-R; type: in vivo, Wistar rats; conditions: rat liver, 24 H, control = 1.0
Description: Male Wistar rats (generally 5 animals/dose-group) were purchased from BRL (Füllingsdorf, Switzerland) and housed individually. Treated animals were dosed either orally, intraperitoneally, or intravenously with several doses of test compounds (Table 1). […] Control animals received the same volume of vehicle as placebo. Necropsy was performed 6 or 24 hours after a single administration and liver samples from the left medial lobe were placed immediately in RNALater (Ambion, Tex., USA) for RNA extraction and gene expression analysis. Samples in RNALater were stored at −20° C. until further processing.
For RNA isolation from liver tissue, a portion of tissue of approximately 100 mg was transferred to a tube containing 1.2 ml RNAzol. […] Total RNA was isolated according to the manufacturer's instruction and quantified by measuring the optical density at 280 nm. The quality of RNA was assessed with gel electrophoresis. […]
After hybridization and scanning, the expression level of each gene was calculated by subtracting the fluorescence intensity of the mismatch probes from the match signal (=average difference) using the [sequence] […] Gene expression data were further analyzed with an in-house-developed data analysis tool (RACE-A, Hoffmann-La Roche, Basel, Switzerland). […] Analyzed data were stored in a toxicogenomics database (RACE-R, Hoffmann-La Roche, Basel, Switzerland). […]

[7] = system: liver; conditions: man, cited from earlier work
[8] = system: EGR1; experiment: EGR-1 induction in rats (RT-PCR); type: in vivo; conditions: confirmed by RT-PCR
Description: Tolcapone (Tasmar) is a human hepatotoxin with no known toxicity in the rat.
§: The compounds were administered to the experimental animals three times, every 12 Hours. Animals were sacrificed 3 hours after the last administration. Shaded cells represent significant induction (threshold usually 2-fold induction).

Row | Compound | induction of GADD-153 (RT-PCR) [1] | induction of PEG-3 (RT-PCR) [2] | induction of GADD-45 (RT-PCR) [3] | further results
1 | CC(=N)S [Thioacetamide] | induction | induction | induction | 
2 | O=C(O)CCCCCCNC1c2ccccc2CCc2ccccc21 [amineptine] |  |  |  | SVM classification of compound class from liver expression profiles [4]: steatotic compound
3 | Nc1ccc(S(=O)(=O)c2cc(Br)nc(N3CCCC3)c2)cc1 [Ro66-0074, 4-(2-Bromo-6-pyrrolidin-1-yl-pyridine-4-sulfonyl)-phenylamine] |  |  |  | expression levels of selected marker genes (RT-PCR, FIG. 10) [5]: slight induction; AH-R Affymetrix [6]: 1.0
4 | CN(C)CCCN1c2ccccc2Sc2ccc(Cl)cc21 [Chlorpromazine] |  |  |  | treated patients who develop jaundice [7]: Up to 1%
5 | Nc1c2c(nc3ccccc13)CCCC2 [Tacrine] |  |  |  | incidence of hepatotoxicity in treated patients ([7]; Alzheimer's disease patients): 40-50%
6 | Cc1ccc(C(=O)c2cc(O)c(O)c([N+](=O)[O-])c2)cc1 [Tolcapone] |  |  |  | induction of EGR1 ([8]; high dose 300 mg/kg): slight induction
7 | Clc1ccccc1Cl [1,2-dichlorobenzene] | induction | induction | induction | SVM classification of compound class from liver expression profiles [4]: direct acting compound
8 | O=[N+]([O-])c1ccc(O)c([N+](=O)[O-])c1 [dinitrophenol, Dinitrophenol] |  |  |  | induction of EGR1 ([8]; 10 and 30 mg/kg): slight induction
9 | NN [Hydrazine] | induction | induction | induction | 

— patent US20060078921A1, “Biomarkers and expression profiles for toxicology” (priority 2002, published 2006)
